Results published in US12077537B2 (Gilead Sciences, Inc., priority 2020, dated 2024).
pEC50: −log10 of the molar value.

Test system: HIV-IIIb
Assay: Antiviral assay in MT4 cells
Format: cell-based
Conditions: Human immunodeficiency virus 1, MT4, 120 h; MT-4 cells mixed with HIV-IIIb at m.o.i. 0.003; 5 days at 37° C.; CellTiter-Glo luminescence; 50% decrease in signal, a measure of HIV-1 replication
Procedure, shortened: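 Compound, tested at ten 3-fold dilutions in quadruplicate in 10% FBS medium, received MT-4 cells pre-mixed 1 hour with HIV-IIIb (m.o.i. 0.003). Protection was read as luminescent cell viability (CellTiter-Glo) after 5 days' culture at 37° C.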

Row | Structure (SMILES) | pEC50
1 | Cn1nc(NS(C)(=O)=O)c2cccc(-c3cc4scnc4nc3C(Cc3cc(F)cc(F)c3)NC(=O)Cn3nc(C(F)(F)F)c4c3C(F)(F)[C@@H]3C[C@H]43)c21 (stereo partly drawn) [Compound 129, 2-((3bS,4aR)-5,5-difluoro-3-(trifluoromethyl)-3b,4,4a,5-tetrahydro-1H-cyclopropa[3,4]cyclopenta[1,2-c]pyrazol-1-yl)-N-(2-(3,5-difluorophenyl)-1-(6-(1-methyl-3-(methylsulfonamido)-1H-indazol-7-yl)thiazolo[4,5-b]pyridin-5-yl)ethyl)acetamide] | 7.77
2 | Cc1nc2nc(C(Cc3cc(F)cc(F)c3)NC(=O)Cn3nc(C(F)(F)F)c4c3C(F)(F)[C@@H]3C[C@H]43)c(-c3cccc4c(NS(C)(=O)=O)nn(C)c34)cc2s1 (stereo partly drawn) [Compound 130, 2-((3bS,4aR)-5,5-difluoro-3-(trifluoromethyl)-3b,4,4a,5-tetrahydro-1H-cyclopropa[3,4]cyclopenta[1,2-c]pyrazol-1-yl)-N-(2-(3,5-difluorophenyl)-1-(2-methyl-6-(1-methyl-3-(methylsulfonamido)-1H-indazol-7-yl)thiazolo[4,5-b]pyridin-5-yl)ethyl)acetamide] | 8.22
3 | Cn1nc(NS(C)(=O)=O)c2cccc(-c3cc4sc(C#N)nc4nc3C(Cc3cc(F)cc(F)c3)NC(=O)Cn3nc(C(F)(F)F)c4c3C(F)(F)[C@@H]3C[C@H]43)c21 (stereo partly drawn) [Compound 131, N-(1-(2-cyano-6-(1-methyl-3-(methylsulfonamido)-1H-indazol-7-yl)thiazolo[4,5-b]pyridin-5-yl)-2-(3,5-difluorophenyl)ethyl)-2-((3bS,4aR)-5,5-difluoro-3-(trifluoromethyl)-3b,4,4a,5-tetrahydro-1H-cyclopropa[3,4]cyclopenta[1,2-c]pyrazol-1-yl)acetamide] | 7.55
4 | Cn1nc(NS(C)(=O)=O)c2cccc(-c3cc4sc(-c5cn[nH]c5)nc4nc3C(Cc3cc(F)cc(F)c3)NC(=O)Cn3nc(C(F)(F)F)c4c3C(F)(F)[C@@H]3C[C@H]43)c21 (stereo partly drawn) [Compound 132, 2-((3bS,4aR)-5,5-difluoro-3-(trifluoromethyl)-3b,4,4a,5-tetrahydro-1H-cyclopropa[3,4]cyclopenta[1,2-c]pyrazol-1-yl)-N-(2-(3,5-difluorophenyl)-1-(6-(1-methyl-3-(methylsulfonamido)-1H-indazol-7-yl)-2-(1H-pyrazol-4-yl)thiazolo[4,5-b]pyridin-5-yl)ethyl)acetamide] | 7.36
5 | Cn1nc(NS(C)(=O)=O)c2cccc(-c3cc4sc(-c5c[nH]cn5)nc4nc3C(Cc3cc(F)cc(F)c3)NC(=O)Cn3nc(C(F)(F)F)c4c3C(F)(F)[C@@H]3C[C@H]43)c21 (stereo partly drawn) [Compound 133, N-(1-(2-(1H-imidazol-4-yl)-6-(1-methyl-3-(methylsulfonamido)-1H-indazol-7-yl)thiazolo[4,5-b]pyridin-5-yl)-2-(3,5-difluorophenyl)ethyl)-2-((3bS,4aR)-5,5-difluoro-3-(trifluoromethyl)-3b,4,4a,5-tetrahydro-1H-cyclopropa[3,4]cyclopenta[1,2-c]pyrazol-1-yl)acetamide] | 7.36

Results, then the compound that gave them:

Row | pEC50 | Structure (SMILES)
6 | 7.99 | Cn1cnc(-c2nc3nc(C(Cc4cc(F)cc(F)c4)NC(=O)Cn4nc(C(F)(F)F)c5c4C(F)(F)[C@@H]4C[C@H]54)c(-c4cccc5c(NS(C)(=O)=O)nn(C)c45)cc3s2)c1 (stereo partly drawn) [Compound 134, 2-((3bS,4aR)-5,5-difluoro-3-(trifluoromethyl)-3b,4,4a,5-tetrahydro-1H-cyclopropa[3,4]cyclopenta[1,2-c]pyrazol-1-yl)-N-(2-(3,5-difluorophenyl)-1-(2-(1-methyl-1H-imidazol-4-yl)-6-(1-methyl-3-(methylsulfonamido)-1H-indazol-7-yl)thiazolo[4,5-b]pyridin-5-yl)ethyl)acetamide]
7 | 7.74 | Cn1nc(NS(C)(=O)=O)c2c(Cl)ccc(-c3cc4[nH]c(=O)ccc4nc3C(Cc3cc(F)cc(F)c3)NC(=O)Cn3nc(C(F)F)c4c3C(F)(F)[C@@H]3C[C@H]43)c21 (stereo partly drawn) [Compound 135, N-(1-(3-(4-chloro-1-methyl-3-(methylsulfonamido)-1H-indazol-7-yl)-6-oxo-5,6-dihydro-1,5-naphthyridin-2-yl)-2-(3,5-difluorophenyl)ethyl)-2-((3bS,4aR)-3-(difluoromethyl)-5,5-difluoro-3b,4,4a,5-tetrahydro-1H-cyclopropa[3,4]cyclopenta[1,2-c]pyrazol-1-yl)acetamide]
8 | 8.37 | Cn1nc(NS(C)(=O)=O)c2c(Cl)ccc(-c3cc4c(nc3[C@H](Cc3cc(F)cc(F)c3)NC(=O)Cn3nc(C(F)F)c5c3C(F)(F)[C@@H]3C[C@H]53)CCC(=O)N4)c21 [Compound 136, N—((S)-1-(3-(4-chloro-1-methyl-3-(methylsulfonamido)-1H-indazol-7-yl)-6-oxo-5,6,7,8-tetrahydro-1,5-naphthyridin-2-yl)-2-(3,5-difluorophenyl)ethyl)-2-((3bS,4aR)-3-(difluoromethyl)-5,5-difluoro-3b,4,4a,5-tetrahydro-1H-cyclopropa[3,4]cyclopenta[1,2-c]pyrazol-1-yl)acetamide]
9 | 6.39 | CC(C)(C)OC(=O)N1CCC[C@H]1c1nc(-c2ccc(C#Cc3nc4nc([C@H](Cc5cc(F)cc(F)c5)NC(=O)Cn5nc(C(F)F)c6c5C(F)(F)CCC6(F)F)c(-c5ccc(F)c(C(N)=O)c5)cc4s3)cc2)c[nH]1 [Compound 137, tert-butyl (S)-2-(4-(4-((6-(3-carbamoyl-4-fluorophenyl)-5-((S)-1-(2-(3-(difluoromethyl)-4,4,7,7-tetrafluoro-4,5,6,7-tetrahydro-1H-indazol-1-yl)acetamido)-2-(3,5-difluorophenyl)ethyl)thiazolo[4,5-b]pyridin-2-yl)ethynyl)phenyl)-1H-imidazol-2-yl)pyrrolidine-1-carboxylate]
10 | 6.95 | NC(=O)c1cc(-c2cc3sc(C#Cc4ccc(-c5c[nH]c([C@@H]6CCCN6)n5)cc4)nc3nc2[C@H](Cc2cc(F)cc(F)c2)NC(=O)Cn2nc(C(F)F)c3c2C(F)(F)CCC3(F)F)ccc1F [Compound 138, 5-(5-((S)-1-(2-(3-(difluoromethyl)-4,4,7,7-tetrafluoro-4,5,6,7-tetrahydro-1H-indazol-1-yl)acetamido)-2-(3,5-difluorophenyl)ethyl)-2-((4-(2-((S)-pyrrolidin-2-yl)-1H-imidazol-4-yl)phenyl)ethynyl)thiazolo[4,5-b]pyridin-6-yl)-2-fluorobenzamide]
11 | 6.26 | NC(=O)c1cc(-c2cc3sc(N4CCN(c5ccc6c(c5)OCCO6)CC4)nc3nc2[C@H](Cc2cc(F)cc(F)c2)NC(=O)Cn2nc(C(F)F)c3c2C(F)(F)CCC3(F)F)ccc1F [Compound 139, (S)-5-(5-(1-(2-(3-(difluoromethyl)-4,4,7,7-tetrafluoro-4,5,6,7-tetrahydro-1H-indazol-1-yl)acetamido)-2-(3,5-difluorophenyl)ethyl)-2-(4-(2,3-dihydrobenzo[b][1,4]dioxin-6-yl)piperazin-1-yl)thiazolo[4,5-b]pyridin-6-yl)-2-fluorobenzamide]
12 | 5.86 | NC(=O)c1cc(-c2cc3sc(N4CCN(c5ccc(Cl)cc5)CC4)nc3nc2[C@H](Cc2cc(F)cc(F)c2)NC(=O)Cn2nc(C(F)(F)F)c3c2C(F)(F)[C@@H]2C[C@H]32)ccc1F [Compound 140, 5-(2-(4-(4-chlorophenyl)piperazin-1-yl)-5-((S)-1-(2-((3bS,4aR)-5,5-difluoro-3-(trifluoromethyl)-3b,4,4a,5-tetrahydro-1H-cyclopropa[3,4]cyclopenta[1,2-c]pyrazol-1-yl)acetamido)-2-(3,5-difluorophenyl)ethyl)thiazolo[4,5-b]pyridin-6-yl)-2-fluorobenzamide]
